Measured values reported in patent US20040162350A1, “Method of treating a non-cancerous disease of the male prostate” (priority 2003, published 2004).

How the values were obtained:
prostate enlargement = assay: Treatment of a person with prostate enlargement diagnosed as a non-cancerous condition; type: in vivo, human; settings: 10 grams with each meal, total 40 grams daily
Excerpt: A person with prostate enlargement diagnosed as a non-cancerous condition started a regimen of taking 10 grams of 2-amino-4-carbamoylbutanoic acid with each meal for a total of 40 grams daily.

male volunteers = assay: Number of night awakenings with the need to urinate, recorded by male volunteers over six-week trial periods; type: in vivo, human; settings: volunteers who woke three or more times a night in more than 28 nights of six-week baseline; multiple daily doses of 15-20 grams; result in at least two thirds of the nights of a subsequent six week trial period; seen in some volunteers
Excerpt: A group of male volunteers recorded for six weeks the number of times a night that they were awakened with the need to urinate. Those who woke up three or more times a night in more than 28 nights durng the six week trial were then given multiple daily doses of 15-20 grams of 2-amino-4-carbamoylbutanoic acid and continued to record the number of times a night that they were awakened with the need to urinate.

## NC(=O)CCC(N)C(=O)O (stereo not drawn) [2-amino-4-carbamoylbutanoic acid]
Prostate enlargement; after a few weeks
  relief felt: felt relief
Prostate enlargement; after two months of this regimen
  prostate size: shrunk to normal size
Male volunteers
  number of times a night awakened with the need to urinate: diminished from three or more times a night to twice, once, and even none at all
